Measurements as given in PMC10609854 (Pharmaceuticals, 2023).

Legend:
CQ-induced pruritus = assay: chloroquine (CQ)-induced pruritus; assay type: in vivo, mice; details: mice, 2.5, 5, 10 and 15 mg/kg i.p.; 30 min observation
Method: (§1) The area (around 2 cm^2) of the nape of mice was shaved at least 2 days prior to experiments. On the day of the experiment, each mouse was individually placed in plastic chambers (15 × 15 × 30 cm). After the 30 min period of habituation, the mice received an intradermal (i.d.) injection of histamine dihydrochloride (10 µmol/site), chloroquine (CQ, 200 µg/site), or SLIGRL-NH2 (40 nmol/site), which were dissolved in physiological saline and administrated at the constant volume of 20 μL. Immediately following the injection, scratching (series of movements considered as a single scratching bout usually consisted of three single scratches) of the injected site by the hind paw was counted for 60 min, 30 min, or 45 min after histamine, CQ, and SLIGRL-NH2 injection, respectively.

[1] = tested on: acute thermal pain (hot plate); assay: hot plate test; assay type: in vivo; details: mice, 30 mg/kg i.p., 30 min before test; saline control 17.93 ± 1.04 s
Method: The hot plate test was performed according to classical method described in Eddy and Leimbach with modifications. At the beginning, animals were tested for their baseline pain sensitivity threshold. For further studies, only mice that fulfilled the criterium of pain response ≤30 s were used. […] The latency to pain response (licking the hind paw or jumping) was measured. The cut-off time was set to up to 60 s to avoid tissue damage, and mice not responding within 60 s were removed from the apparatus and assigned the score of 60 s.

[2] = molecular target: T1, human kappa opioid receptor (Homo sapiens, UniProt P41145); assay: radioligand binding, human opioid kappa receptor ([3H]U69593, RBL cells)
T1 construct: host or cells: RBL cells

in vivo = details: mouse
Method: The compound was administered at a dose of 5 mg/kg i.v. and at two doses (5 and 15 mg/kg) i.p. Before the dose (time 0) and up to 8 h at different time points following compound administration, three to five mice per time point were exsanguinated while under light ketamine/xylazine anesthesia. Blood and brains were harvested to the last measured point, whereas liver, kidneys, and lungs were collected at 0.25, 0.5, and 1 h. Serum and tissues were stored at −80 °C until assayed.
Tissues (liver, kidney, brain, and lung) were homogenized with water in a 1:5 ratio (w/v). Prior to the extraction, 100 μL of the plasma samples or 500 μL of tissue homogenates containing calibrators or authentic samples were spiked with 10 μL of IS working solution in a snap-cap microcentrifuge tubes and vortexed (Reax top, Heidolph, Schwabach, Germany) for 15 s. The serum and tissue samples were then alkalized with, respectively, 20 μL or 50 μL of 4 M sodium hydroxide solution, mixed briefly on the vortex mixer, and extracted with 1 mL of ethyl acetate/hexane (30:70, v/v) mixture by mixing for 20 min on a shaker (VXR Vibrax, IKA, Staufen, Germany). Then samples were centrifuged (EBA 12 R, Hettich, Germany) at 8000 g for 15 min and the organic layer of each sample was transferred to a new snap-cap microcentrifuge tube containing 200 μL of a methanol/0.1 M sulfuric acid mixture (1:9, v/v). Subsequently the samples were vortexed (20 min) and centrifuged again (8000 g, 15 min). Finally, the organic layer was discarded and 10–50 μL of the acidic layer was transferred to the autosampler vials (4 °C).
The HPLC system (LaChrom Elite, Merck Hitachi) consisted of the following components: an L-2130 pump, an L-2200 autosampler with a 100 μL sample loop, an L-2350 oven, and an L-2485 fluorescence detector. Excitation and emission wavelengths were set to 260 nm and 330 nm, respectively. Analysis was performed at a temperature of 25 °C on a 250 mm × 4 mm LiChrospher 100 RP-18 column from Merck Millipore (Germany), filled with 5 μm particles, protected with LiChroCART precolumn (10 μm particle size). The mobile phase containing acetonitrile and 20 mM potassium dihydrogen phosphate buffer (pH 4.5) in a 7:3 (v/v) ratio was filtered through the 0.45 µm membrane filter (Supelco Inc., Mainz, Germany) before use and pumped at a flow rate of 1.5 mL/min. […] The method was validated for serum, brain, liver kidney, and lungs.
Both one- and two-compartment pharmacokinetic models were tested. Bioavailability was estimated as a model parameter (F). […] The maximum concentration (Cmax) and the time to reach peak concentration (tmax) were obtained directly from the concentration–time data. The terminal elimination rate constant (λz) was assessed using linear regression. Terminal half-life (t0.5λz) was calculated as ln2/λz. The area under the concentration–time curve from 0 to last measured point (AUC0–last) was calculated using the linear trapezoidal rule. Non-compartmental and model-dependent analyses were performed using Phoenix WinNonlin version 6.3 (Pharsight Corp., Mountain View, CA, USA). The final pharmacokinetic model was selected on the basis of visual inspection of the fitting, examination of residuals, parameter precision, Akaike Information Criteria, and Schwarz Criteria.

[3] = up to 10 μM; cited from earlier work
SLIGRL-induced pruritus = assay: SLIGRL-induced pruritus; assay type: in vivo; details: mice, 45 min observation
Method: as §1

[4] = tested on: histamine-induced pruritus; assay: histamine-induced pruritus; assay type: in vivo; details: mice
Method: as §1

H3R = tested on: H3R; parameters: method as in PMID 28797771; details: read-out: IC50, cAMP accumulation assay (H3R antagonist potency); cited from earlier work
capsaicin-induced pain = assay: capsaicin test; assay type: in vivo; details: mice, all doses (10, 15 and 30 mg/kg i.p.)
Method: The mice received an intraperitoneal (i.p.) injection of either the test compound or a control solution. After 30 min, an intraplantar injection of 1.6 µg capsaicin in a 20 μL solution of 0.9% NaCl was administered to the right hind paw. Right after the capsaicin injection, the animals were individually placed into glass containers and observed for the subsequent 5 min. During this observation period, the time that each animal spent licking or biting the injected paw was recorded.

T1 sequence (P41145 whole entry): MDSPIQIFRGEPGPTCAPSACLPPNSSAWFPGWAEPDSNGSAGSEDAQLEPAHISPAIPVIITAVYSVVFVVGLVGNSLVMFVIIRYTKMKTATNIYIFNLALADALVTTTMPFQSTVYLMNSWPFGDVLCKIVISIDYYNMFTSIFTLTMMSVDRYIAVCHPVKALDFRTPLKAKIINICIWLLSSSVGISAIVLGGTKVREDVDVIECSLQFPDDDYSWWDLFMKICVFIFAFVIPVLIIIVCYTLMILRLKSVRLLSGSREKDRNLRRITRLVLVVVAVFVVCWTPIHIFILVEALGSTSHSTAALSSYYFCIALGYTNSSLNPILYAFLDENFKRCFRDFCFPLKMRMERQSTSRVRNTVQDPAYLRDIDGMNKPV

With `O=C(O)C(=O)O.c1ccc(-c2ccc(OCCCCCN3CCCCCC3)cc2)cc1` [Compound E153, 1-(5-(4-Phenylphenoxy)pentyl)azepane hydrogen oxalate] the “number of scratch bouts, CQ-induced pruritus” value (CQ-induced pruritus) was “significantly decreased”, the “latency time of the pain reaction, hot plate test” value [1] was 37.60 ± 6.13 s and the inhibition at 1 µM [2] was 52%. For the same compound, the “Vc (volume of the central compartment)” value (in vivo) was 6.39 L/kg, the half-life (in vivo) was 41.6 min and the “k12 (first-order distribution rate constant)” value (in vivo) was 0.33 h⁻¹. The “k21 (first-order distribution rate constant)” value (in vivo) was 0.19 h⁻¹, the k el (in vivo) was 0.000278 s⁻¹ and the “time of high (peak) concentrations in brain tissue” value (in vivo) was 0.5 to 1 h. For the same compound, the “k01 (first-order absorption rate constant, ka)” value (in vivo; ip) was 2.32 h⁻¹, the Kp (in vivo; ip, 5 mg/kg) was 28.5 and the “brain t0.5λz” value (in vivo; ip, 5 mg/kg) was 1.03 h. The Kp (in vivo; ip, 15 mg/kg) was 14.7, the “brain Cmax” value (in vivo; ip, 15 mg/kg) was 11,682.69 ng/g and the “brain t0.5λz” value (in vivo; ip, 15 mg/kg) was 1.46 h. For the same compound, the Kp (in vivo; iv, 5 mg/kg) was 15.7, the Tmax (in vivo; iv, 5 mg/kg) was 15 min and the “brain t0.5λz” value (in vivo; iv, 5 mg/kg) was 0.90 h. The “highest concentration in liver” value (in vivo; iv, 5 mg/kg) was 5.32 µg/g, the “highest concentration in lung tissue” value (in vivo; iv, 5 mg/kg) was 43.13 µg/g and the “mutagenicity in the AMES test” value [3] was “non-mutagenic”. For the same compound, the “scratch bouts, SLIGRL-induced pruritus” value (SLIGRL-induced pruritus; 5 mg/kg i.p.) was “not effective”, the “scratch bouts, SLIGRL-induced pruritus” value (SLIGRL-induced pruritus; 7.5 and 10 mg/kg i.p.) was “significantly diminished” and the “activity in histamine-induced pruritus” value ([4]; 5 mg/kg i.p.) was “active”. For the same compound, the “scratching behavior, histamine-induced pruritus” value ([4]; i.p. 30 min before i.d. histamine) was “significantly reduced scratching behavior”, the IC50 (H3R) was 9 nM and the “paw licking or biting behavior, capsaicin test” value (capsaicin-induced pain) was “significantly decreased”.
